Results from patent US20140364431A1, “Quinoline and cinnoline derivatives and their applications” (Shenyang Pharmaceutical University, priority 2011, published 2014).
In brackets after ≈: the same amount, converted by molar mass. Counter-ions that a name gives are not always drawn. Like-named read-outs stand apart in the source and are kept apart here.

Tests used:
[1] = system: H460 (human lung cancer cell); experiment: In vitro anti-tumor cellular activity (MTT), H460; assay type: cell-based; details: Homo sapiens, read-out: H460 IC50
[2] = system: U87MG (Human malignant glioblastoma cells); experiment: In vitro anti-tumor cellular activity (MTT), U87MG; assay type: cell-based; details: Homo sapiens, U-87 MG, read-out: U87MG IC50
[3] = system: HT-29 (colon cancer cell); experiment: In vitro anti-tumor cellular activity (MTT), HT-29; assay type: cell-based, human; details: Homo sapiens, read-out: HT-29 IC50
[4] = system: SMMC-7721 (hepatoma cell); experiment: In vitro anti-tumor cellular activity (MTT), SMMC-7721; assay type: cell-based, human; details: Homo sapiens, read-out: SMMC-7721 IC50
[5] = biological target: T1, c-Met (His-tagged recombinant human Met (Amino acids 974-ends)) (Homo sapiens, UniProt P08581); experiment: c-Met kinase assay (ELISA); assay type: biochemical; details: 50 pM c-Met, 5 μM ATP, 20 min
T1 construct: His-tagged recombinant human Met (Amino acids 974-ends); His; host or cells: baculovirus expression
T1 sequence (P08581 974-1390 limits assumed): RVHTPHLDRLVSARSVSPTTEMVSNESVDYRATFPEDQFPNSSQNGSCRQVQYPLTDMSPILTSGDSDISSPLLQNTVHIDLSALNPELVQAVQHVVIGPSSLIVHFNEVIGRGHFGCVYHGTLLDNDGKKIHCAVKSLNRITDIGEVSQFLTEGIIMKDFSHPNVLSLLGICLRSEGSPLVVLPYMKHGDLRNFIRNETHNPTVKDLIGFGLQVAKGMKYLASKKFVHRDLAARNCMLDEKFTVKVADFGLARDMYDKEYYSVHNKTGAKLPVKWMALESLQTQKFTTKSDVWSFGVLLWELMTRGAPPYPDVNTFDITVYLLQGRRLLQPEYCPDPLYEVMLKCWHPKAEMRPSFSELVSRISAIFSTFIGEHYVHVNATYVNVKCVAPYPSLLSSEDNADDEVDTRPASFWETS
Protocol: c-Met kinase activity was measured with an ELISA reader.
The reaction mixture was removed by washing with 0.2 μg/mL conjugated horseradish peroxidase (HRP) monoclonal antibody specific for phosphotyrosine (PY20) detecting phosphorylation of the substrate polymer. 1M phosphoric acid was added to terminate the color, the chromogenic substrate (TMB) was tested by spectrophotometry at 450 nm.

[6] = system: MKN-45 (human gastric carcinoma cell); experiment: In vitro anti-tumor cellular activity (MTT), MKN-45; assay type: cell-based; details: Homo sapiens, read-out: MKN-45 IC50

Row | SMILES | IC50 ([1]; NCI-H460, MTT, 72 hours, H460) | IC50 ([2]; MTT, 72 hours, U87MG) | IC50 ([3]; MTT, 72 hours, HT-29) | IC50 ([4]; MTT, 72 hours, SMMC-7721) | IC50 [5] | IC50 ([6]; MTT, 72 hours, MKN-45) | IC50 ([1]; NCI-H460, 72 h) | IC50 ([2]; 72 h) | IC50 ([3]; HT-29, 72 h) | IC50 ([4]; SMMC-7721, 72 h) | IC50 ([6]; MKN-45, 72 h)
1 | COc1cc2c(Oc3ccc(NC(=O)c4nn(-c5ccc(C)cc5C)c5ccccc5c4=O)cc3F)ccnc2cc1OCCCN1CCC(C)CC1 [Example 24, N-(3-fluoro-4-((6-methoxy-7-(3-(4-methylpiperidin-1-yl)propoxy)quinolin-4-yl)oxy)phenyl)-1-(2,4-dimethylphenyl)-4-oxo-1,4-dihydrocinnoline-3-carboxamide] | 1.1 µg/mL (≈ 1.54 µM) | 2.8 µg/mL (≈ 3.91 µM) | 1.4 µg/mL (≈ 1.96 µM) | 0.86 µg/mL (≈ 1.2 µM) | 1260 nM | 0.8 µg/mL (≈ 1.12 µM) |  |  |  |  | 
2 | COc1cc2c(Oc3ccc(NC(=O)c4nn(-c5ccc(Cl)cc5Cl)c5ccccc5c4=O)cc3F)ccnc2cc1OCCCN1CCC(C)CC1 [Example 28, N-(3-fluoro-4-((6-methoxy-7-(3-(4-methylpiperidin-1-yl)propoxy)quinolin-4-yl)oxy)phenyl)-1-(2,4-dichlorophenyl)-4-oxo-1,4-dihydrocinnoline-3-carboxamide] |  |  |  |  | 1720 nM |  | 2.3 µg/mL (≈ 3.04 µM) | 1.6 µg/mL (≈ 2.11 µM) | 0.9 µg/mL (≈ 1.19 µM) | 1.3 µg/mL (≈ 1.72 µM) | 1.8 µg/mL (≈ 2.38 µM)
3 | COc1cc2c(Oc3ccc(NC(=O)c4nn(-c5c(Cl)cccc5Cl)c5ccccc5c4=O)cc3F)ccnc2cc1OCCCN1CCN(C)CC1 [Example 32, N-(3-fluoro-4-((6-methoxy-7-(3-(4-methylpiperazin-1-yl)propoxy)quinolin-4-yl)oxy)phenyl)-1-(2,6-dichlorophenyl)-4-oxo-1,4-dihydrocinnoline-3-carboxamide] |  |  |  |  | 132 nM |  | 0.7 µg/mL (≈ 0.924 µM) | 0.65 µg/mL (≈ 0.858 µM) | 0.77 µg/mL (≈ 1.02 µM) | 0.66 µg/mL (≈ 0.871 µM) | 1.2 µg/mL (≈ 1.58 µM)
4 | COc1cc2c(Oc3ccc(NC(=O)c4nn(-c5ccccc5Br)c5ccccc5c4=O)cc3F)ccnc2cc1OCCCN1CCN(C)CC1 [Example 35, N-(3-fluoro-4-((6-methoxy-7-(3-(4-methylpiperazin-1-yl)propoxy)quinolin-4-yl)oxy)phenyl)-1-(2-bromophenyl)-4-oxo-1,4-dihydrocinnoline-3-carboxamide] |  |  |  |  | 1430 nM |  | 2.5 µg/mL (≈ 3.26 µM) | 1.3 µg/mL (≈ 1.69 µM) | 0.9 µg/mL (≈ 1.17 µM) | 1.5 µg/mL (≈ 1.95 µM) | 2.1 µg/mL (≈ 2.74 µM)
5 | COc1cc2c(Oc3ccc(NC(=O)c4nn(-c5ccc(F)cc5)c5ccccc5c4=O)cc3F)ccnc2cc1OCCCN1CCOCC1 [Example 36, N-(3-fluoro-4-((6-methoxy-7-(3-(morpholin-4-yl)propoxy)quinolin-4-yl)oxy)phenyl)-1-(4-fluorophenyl)-4-oxo-1,4-dihydrocinnoline-3-carboxamide] | 1.1 µg/mL (≈ 1.59 µM) | 1.5 µg/mL (≈ 2.16 µM) | 0.7 µg/mL (≈ 1.01 µM) | 0.87 µg/mL (≈ 1.25 µM) | 966 nM | 1.3 µg/mL (≈ 1.87 µM) |  |  |  |  | 
6 | COc1cc2c(Oc3ccc(NC(=O)c4nn(-c5ccc(Br)cc5)c5ccccc5c4=O)cc3F)ccnc2cc1OCCCN1CCOCC1 [Example 39, N-(3-fluoro-4-((6-methoxy-7-(3-(morpholin-4-yl)propoxy)quinolin-4-yl)oxy)phenyl)-1-(4-bromophenyl)-4-oxo-1,4-dihydrocinnoline-3-carboxamide] |  |  |  |  | 1330 nM |  | 2.3 µg/mL (≈ 3.05 µM) | 1.8 µg/mL (≈ 2.39 µM) | 0.87 µg/mL (≈ 1.15 µM) | 2.1 µg/mL (≈ 2.78 µM) | 1.4 µg/mL (≈ 1.86 µM)
7 | COc1cc2c(Oc3ccc(NC(=O)c4nn(-c5ccc(Cl)cc5Cl)c5ccccc5c4=O)cc3F)ccnc2cc1OCCCN1CCN(C)CC1 [Example 43, N-(3-fluoro-4-((6-methoxy-7-(3-(4-methylpiperazin-1-yl)propoxy)quinolin-4-yl)oxy)phenyl)-1-(2,4-dichlorophenyl)-4-oxo-1,4-dihydrocinnoline-3-carboxamide] |  |  |  |  | 924 nM |  | 0.53 µg/mL (≈ 0.7 µM) | 0.77 µg/mL (≈ 1.02 µM) | 1.2 µg/mL (≈ 1.58 µM) | 1.8 µg/mL (≈ 2.38 µM) | 0.45 µg/mL (≈ 0.594 µM)
8 | COc1cc2c(Oc3ccc(NC(=O)c4cn(-c5ccc(F)cc5)c5ccccc5c4=O)cc3F)ccnc2cc1OCCCN1CCN(C)CC1 [Example 46, N-(3-fluoro-4-((6-methoxy-7-(3-(4-methyl-piperazin-1-yl)propoxy)quinolin-4-yl)oxy)phenyl)-4-oxo-1-(4-fluorophenyl)-1,4-dihydroquinoline-3-carboxamide dihydrochloride] | 0.98 µg/mL | 0.72 µg/mL | 1.5 µg/mL | 1.3 µg/mL | 1130 nM | 0.67 µg/mL |  |  |  |  | 
9 | COc1cc2c(Oc3ccc(NC(=O)c4cn(-c5ccccc5F)c5ccccc5c4=O)cc3F)ccnc2cc1OCCCN1CCC(C)CC1 [Example 47, N-(3-fluoro-4-((6-methoxy-7-(3-(4-methylpiperidin-1-yl)propoxy)quinolin-4-yl)oxy)phenyl)-1-(2-fluorophenyl)-4-oxo-1,4-dihydroquinoline-3-carboxamide] | 0.54 µg/mL (≈ 0.766 µM) | 0.49 µg/mL (≈ 0.695 µM) | 0.57 µg/mL (≈ 0.809 µM) | 1.1 µg/mL (≈ 1.56 µM) | 568 nM | 0.34 µg/mL (≈ 0.482 µM) |  |  |  |  | 
10 | COc1cc2c(Oc3ccc(NC(=O)c4cn(-c5ccccc5C(F)(F)F)c5ccccc5c4=O)cc3F)ccnc2cc1OCCCN1CCOCC1.Cl.Cl [Example 48, N-(3-fluoro-4-((6-methoxy-7-(3-(morpholin-4-yl)propoxy)quinolin-4-yl)oxy)phenyl)-4-oxo-1-(2-(trifluoromethyl)phenyl)-1,4-dihydroquinoline-3-carboxamide dihydrochloride] | 0.7 µg/mL | 0.88 µg/mL | 0.65 µg/mL | 0.56 µg/mL | 1350 nM | 1.1 µg/mL |  |  |  |  | 
11 | COc1cc2c(Oc3ccc(NC(=O)c4cn(-c5ccccc5F)c5ccccc5c4=O)cc3F)ccnc2cc1OCCCN1CCCCC1 [Example 50, N-(3-fluoro-4-((6-methoxy-7-(3-(piperidin-1-yl)propoxy)quinolin-4-yl)oxy)phenyl)-1-(2-fluorophenyl)-4-oxo-1,4-dihydroquinoline-3-carboxamide] | 0.58 µg/mL (≈ 0.84 µM) | 0.35 µg/mL (≈ 0.507 µM) | 0.38 µg/mL (≈ 0.55 µM) | 0.87 µg/mL (≈ 1.26 µM) | 869 nM | 0.45 µg/mL (≈ 0.651 µM) |  |  |  |  | 
12 | COc1cc2c(Oc3ccc(NC(=O)c4cn(-c5ccccc5F)c5ccccc5c4=O)cc3F)ccnc2cc1OCCCN1CCCC1 [Example 51, N-(3-fluoro-4-((6-methoxy-7-(3-(pyrrolidin-1-yl)propoxy)quinolin-4-yl)oxy)phenyl)-1-(2-fluorophenyl)-4-oxo-1,4-dihydroquinoline-3-carboxamide] | 0.58 µg/mL (≈ 0.857 µM) | 0.28 µg/mL (≈ 0.414 µM) | 0.41 µg/mL (≈ 0.606 µM) | 0.53 µg/mL (≈ 0.783 µM) | 296 nM | 0.24 µg/mL (≈ 0.355 µM) |  |  |  |  | 

The next lines start with results.

Row | IC50 ([1]; NCI-H460, MTT, 72 hours, H460) | IC50 ([2]; MTT, 72 hours, U87MG) | IC50 ([3]; MTT, 72 hours, HT-29) | IC50 ([4]; MTT, 72 hours, SMMC-7721) | IC50 [5] | IC50 ([6]; MTT, 72 hours, MKN-45) | SMILES | IC50 ([1]; NCI-H460, 72 h) | IC50 ([2]; 72 h) | IC50 ([3]; HT-29, 72 h) | IC50 ([4]; SMMC-7721, 72 h) | IC50 ([6]; MKN-45, 72 h)
13 | 1.1 µg/mL (≈ 1.42 µM) | 1.3 µg/mL (≈ 1.67 µM) | 0.7 µg/mL (≈ 0.902 µM) | 0.5 µg/mL (≈ 0.644 µM) | 1930 nM | 1.6 µg/mL (≈ 2.06 µM) | COc1cc2c(Oc3ccc(NC(=O)c4nn(-c5cc(C(F)(F)F)ccc5Cl)c5ccccc5c4=O)cc3F)ccnc2cc1OCCCN1CCCCC1 [Example 20, N-(3-fluoro-4-((6-methoxy-7-(3-(piperidin-1-yl)propoxy)quinolin-4-yl)oxy)phenyl)-1-(2-chloro-5-(trifluoromethyl)phenyl)-4-oxo-1,4-dihydrocinnoline-3-carboxamide] |  |  |  |  | 
14 | 0.8 µg/mL (≈ 1.01 µM) | 0.7 µg/mL (≈ 0.886 µM) | 0.8 µg/mL (≈ 1.01 µM) | 1.4 µg/mL (≈ 1.77 µM) | 1140 nM | 0.6 µg/mL (≈ 0.759 µM) | COc1cc2c(Oc3ccc(NC(=O)c4nn(-c5cc(C(F)(F)F)ccc5Cl)c5ccccc5c4=O)cc3F)ccnc2cc1OCCCN1CCC(C)CC1 [Example 21, N-(3-fluoro-4-((6-methoxy-7-(3-(4-methylpiperidin-1-yl)propoxy)quinolin-4-yl)oxy)phenyl)-1-(2-chloro-5-(trifluoromethyl)phenyl)-4-oxo-1,4-dihydrocinnoline-3-carboxamide] |  |  |  |  | 
15 | 1 µg/mL (≈ 1.26 µM) | 1.3 µg/mL (≈ 1.64 µM) | 0.7 µg/mL (≈ 0.885 µM) | 1.4 µg/mL (≈ 1.77 µM) | 404 nM | 0.9 µg/mL (≈ 1.14 µM) | COc1cc2c(Oc3ccc(NC(=O)c4nn(-c5cc(C(F)(F)F)ccc5Cl)c5ccccc5c4=O)cc3F)ccnc2cc1OCCCN1CCN(C)CC1 [Example 23, N-(3-fluoro-4-((6-methoxy-7-(3-(4-methylpiperazin-1-yl)propoxy)quinolin-4-yl)oxy)phenyl)-1-(2-chloro-5-(trifluoromethyl)phenyl)-4-oxo-1,4-dihydrocinnoline-3-carboxamide] |  |  |  |  | 
16 | 0.8 µg/mL (≈ 1.12 µM) | 1.8 µg/mL (≈ 2.51 µM) | 1.4 µg/mL (≈ 1.95 µM) | 1.6 µg/mL (≈ 2.23 µM) | 419 nM | 0.7 µg/mL (≈ 0.977 µM) | COc1cc2c(Oc3ccc(NC(=O)c4nn(-c5ccc(C)cc5C)c5ccccc5c4=O)cc3F)ccnc2cc1OCCCN1CCN(C)CC1 [Example 26, N-(3-fluoro-4-((6-methoxy-7-(3-(4-methylpiperazin-1-yl)propoxy)quinolin-4-yl)oxy)phenyl)-1-(2,4-dimethylphenyl)-4-oxo-1,4-dihydrocimloline-3-carboxamide] |  |  |  |  | 
17 | 1.6 µg/mL (≈ 2.11 µM) | 1.1 µg/mL (≈ 1.45 µM) | 1.8 µg/mL (≈ 2.38 µM) | 0.98 µg/mL (≈ 1.29 µM) | 1450 nM | 2.1 µg/mL (≈ 2.77 µM) | COc1cc2c(Oc3ccc(NC(=O)c4nn(-c5ccccc5OC(F)(F)F)c5ccccc5c4=O)cc3F)ccnc2cc1OCCCN1CCCCC1 [Example 38, N-(3-fluoro-4-((6-methoxy-7-(3-(piperidin-1-yl)propoxy)quinolin-4-yl)oxy)phenyl)-1-(2-(trifluoromethoxy)phenyl)-4-oxo-1,4-dihydrocinnoline-3-carboxamide] |  |  |  |  | 
